Measured values: patent US7396837B2, “Antitumoral analogs of lamellarins” (Pharma Mar, S.A.U., priority 2002, dated 2008)
Like-named read-outs stand apart in the source and are kept apart here.

Assays:
K-562 = test: SRB colorimetric cell growth inhibition assay, K-562; format: cell-based; settings: Homo sapiens, K562, K-562; for GI50: GI=growth inhibition, read-out: GI50 K-562; for CC50: read-out: LC50 K-562; for IC (TGI): read-out: TGI K-562
In short: (§1)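 Sulforhodamine B colorimetric readout measured cell growth and viability after continuous compound exposure of human cancer cell lines in 96-well plates. Triplicate wells gave mean ± SD, from which growth inhibition (GI), cytostatic total growth inhibition (TGI) and cytotoxic cell killing (LC) were calculated.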

A-549 = test: SRB colorimetric cell growth inhibition assay, A-549; format: cell-based; settings: Homo sapiens, A549, A-549; for GI50: GI=growth inhibition, read-out: GI50 A-549; for CC50: read-out: LC50 A-549; for IC (TGI): read-out: TGI A-549
In short: as §1

SK-MEL-28 = test: SRB colorimetric cell growth inhibition assay, SK-MEL-28; format: cell-based; settings: Homo sapiens, SK-MEL-28, MEL-28; for GI50: GI=growth inhibition, read-out: GI50 MEL-28; for CC50: LC=cell killing (cytotoxic effect), read-out: LC50 MEL-28; for IC (TGI): TGI=total growth inhibition (cytostatic effect), read-out: TGI MEL-28
In short: as §1

HT-29 = test: SRB colorimetric cell growth inhibition assay, HT-29; format: cell-based; settings: Homo sapiens, HT-29, HT-29; for GI50: GI=growth inhibition, read-out: GI50 HT-29; for CC50: read-out: LC50 HT-29; for IC (TGI): read-out: TGI HT-29
In short: as §1

LoVo = test: SRB colorimetric cell growth inhibition assay, LoVo; format: cell-based; settings: Homo sapiens, LoVo; for GI50: GI=growth inhibition, read-out: GI50 LOVO; for CC50: read-out: LC50 LOVO; for IC (TGI): read-out: TGI LOVO
In short: as §1

LoVo-Dox = test: SRB colorimetric cell growth inhibition assay, LoVo-Dox (MDR); format: cell-based; settings: Homo sapiens, LOVO-DOX; for GI50: GI=growth inhibition, read-out: GI50 LOVO-DOX; for CC50: read-out: LC50 LOVO-DOX; for IC (TGI): read-out: TGI LOVO-DOX
In short: as §1

DU-145 = test: SRB colorimetric cell growth inhibition assay, DU-145; format: cell-based; settings: Homo sapiens, DU-145, DU-145; for GI50: GI=growth inhibition, read-out: GI50 DU-145; for CC50: LC=cell killing (cytotoxic effect), read-out: LC50 DU-145; for IC (TGI): TGI=total growth inhibition (cytostatic effect), read-out: TGI DU-145
In short: as §1

LNCaP = test: SRB colorimetric cell growth inhibition assay, LNCaP; format: cell-based; settings: Homo sapiens, LNCaP, LN-caP; for GI50: GI=growth inhibition, read-out: GI50 LN-caP; for CC50: LC=cell killing (cytotoxic effect), read-out: LC50 LN-caP; for IC (TGI): TGI=total growth inhibition (cytostatic effect), read-out: TGI LN-caP
In short: as §1

SK-BR-3 = test: SRB colorimetric cell growth inhibition assay, SK-BR-3; format: cell-based; settings: Homo sapiens, SK-BR-3, SK-BR-3; for GI50: GI=growth inhibition, read-out: GI50 SK-BR-3; for CC50: LC=cell killing (cytotoxic effect), read-out: LC50 SK-BR-3; for IC (TGI): TGI=total growth inhibition (cytostatic effect), read-out: TGI SK-BR-3
In short: as §1

IGROV = test: SRB colorimetric cell growth inhibition assay, IGROV; format: cell-based; settings: Homo sapiens, IGROV; for GI50: GI=growth inhibition, read-out: GI50 IGROV; for CC50: LC=cell killing (cytotoxic effect), read-out: LC50 IGROV; for IC (TGI): TGI=total growth inhibition (cytostatic effect), read-out: TGI IGROV
In short: as §1

IGROV-ET = test: SRB colorimetric cell growth inhibition assay, IGROV-ET (ET-743 resistant); format: cell-based; settings: Homo sapiens, IGROV-ET; for GI50: GI=growth inhibition, read-out: GI50 IGROV-ET; for CC50: LC=cell killing (cytotoxic effect), read-out: LC50 IGROV-ET; for IC (TGI): TGI=total growth inhibition (cytostatic effect), read-out: TGI IGROV-ET
In short: as §1

PANC-1 = test: SRB colorimetric cell growth inhibition assay, PANC-1; format: cell-based; settings: Homo sapiens, PANC-1, PANC-1; for GI50: GI=growth inhibition, read-out: GI50 PANC-1; for CC50: read-out: LC50 PANC-1; for IC (TGI): read-out: TGI PANC-1
In short: as §1

human topoisomerase I = target: T1, human topoisomerase I (Homo sapiens, UniProt P11387); test: Topoisomerase I DNA relaxation assay (supercoiled plasmid DNA); format: biochemical; settings: supercoiled plasmid DNA, each compound tested at 1 μM, agarose gel with ethidium bromide
T1 sequence (P11387 1-765): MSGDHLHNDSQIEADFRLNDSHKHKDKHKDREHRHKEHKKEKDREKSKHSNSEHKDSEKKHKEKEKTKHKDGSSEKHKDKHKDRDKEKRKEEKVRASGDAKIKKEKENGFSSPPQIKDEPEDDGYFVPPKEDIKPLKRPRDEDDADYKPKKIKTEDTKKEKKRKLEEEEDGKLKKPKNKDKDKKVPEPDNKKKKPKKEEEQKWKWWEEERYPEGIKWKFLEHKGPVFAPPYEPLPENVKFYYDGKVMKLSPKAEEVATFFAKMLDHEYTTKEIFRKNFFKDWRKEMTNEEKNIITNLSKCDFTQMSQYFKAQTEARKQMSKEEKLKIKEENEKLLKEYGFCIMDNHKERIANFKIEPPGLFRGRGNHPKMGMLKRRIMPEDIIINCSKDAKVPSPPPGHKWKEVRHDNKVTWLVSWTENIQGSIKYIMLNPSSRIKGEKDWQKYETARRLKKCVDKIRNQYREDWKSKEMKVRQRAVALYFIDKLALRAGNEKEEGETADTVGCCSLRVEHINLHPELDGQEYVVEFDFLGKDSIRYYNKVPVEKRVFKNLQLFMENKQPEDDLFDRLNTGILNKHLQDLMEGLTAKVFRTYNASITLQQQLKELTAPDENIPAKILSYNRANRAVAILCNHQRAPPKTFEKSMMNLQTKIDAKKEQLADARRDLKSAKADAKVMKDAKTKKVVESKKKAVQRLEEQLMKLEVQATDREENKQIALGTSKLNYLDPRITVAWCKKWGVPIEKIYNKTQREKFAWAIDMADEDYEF
In short: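 Test compounds (1 μM each) were present during topoisomerase I relaxation of supercoiled plasmid DNA. Relaxation was assessed on ethidium bromide-stained agarose gels.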

[1] = cell killing (cytotoxic effect)
[2] = total growth inhibition (cytostatic effect)
[3] = LC=cell killing (cytotoxic effect)
[4] = TGI=total growth inhibition (cytostatic effect)

| SMILES | GI50 (K-562) [µM] | GI50 (A-549) [µM] | GI50 (SK-MEL-28) [µM] | CC50 (SK-MEL-28) [µM] | IC (TGI) (SK-MEL-28) [µM] | GI50 (HT-29) [µM] | GI50 (LoVo) [µM] | GI50 (LoVo-Dox) [µM] | GI50 (DU-145) [µM] | CC50 (DU-145) [µM] | IC (TGI) (DU-145) [µM] | GI50 (LNCaP) [µM] | CC50 (LNCaP) [µM] | IC (TGI) (LNCaP) [µM] | GI50 (SK-BR-3) [µM] | CC50 (SK-BR-3) [µM] | IC (TGI) (SK-BR-3) [µM] | GI50 (IGROV) [µM] | CC50 (IGROV) [µM] | IC (TGI) (IGROV) [µM] | also measured |
| --- | --- | --- | --- | --- | --- | --- | --- | --- | --- | --- | --- | --- | --- | --- | --- | --- | --- | --- | --- | --- | --- |
| COc1cc(-c2c3n(c4c(=O)oc5cc(O)c(OC)cc5c24)CCc2cc(O)c(OC)cc2-3)ccc1O [Compound 109] | 0.425 | 5.94 | 0.885 | 10.8 | 2.57 | 4.81 | 0.917 | 5.64 | 2.99 | 19.9 | 15.4 | 1.16 | 19.9 | 1.99 | 3.45 | 19 | 8.1 | 1.8 | 19.9 | 6.08 | CC50 (K-562; [1]): 19.9 µM; IC (TGI) (K-562; [2]): 19.9 µM; CC50 (A-549; [1]): 19.9 µM; IC (TGI) (A-549; [2]): 14.1 µM; CC50 (HT-29; [1]): 19.9 µM; IC (TGI) (HT-29; [2]): 19.9 µM; CC50 (LoVo; [1]): 19.9 µM; IC (TGI) (LoVo; [2]): 4.07 µM; CC50 (LoVo-Dox; [1]): 19.9 µM; IC (TGI) (LoVo-Dox; [2]): 13.5 µM; GI50 (IGROV-ET): 9.67 µM; CC50 (IGROV-ET): 19.9 µM; IC (TGI) (IGROV-ET): 19.9 µM; GI50 (PANC-1): 5.7 µM; CC50 (PANC-1; [1]): 19.9 µM; IC (TGI) (PANC-1; [2]): 19.9 µM; stimulation of DNA cleavage by topoisomerase I / inhibition of topoisomerase I (nicked DNA band) in DNA relaxation assay (human topoisomerase I): inactive |
| COc1cc(-c2c3c4cc(OC)c(OC(=O)[C@H](C)N)cc4oc(=O)c3n3ccc4cc(OC(=O)[C@H](C)N)c(OC)cc4c23)ccc1OC(=O)[C@H](C)N [Compound 40] | 0.0582 | 0.0316 | 0.0412 | 9.48 | 0.595 | 3.57 | 0.223 | 0.47 | 0.0162 | 9.48 | 0.094 | 0.13 | 4.38 | 0.447 | 0.816 | 9.48 | 3.25 | 0.0449 | 5.04 | 0.391 | CC50 (K-562; [3]): 4.61 µM; IC (TGI) (K-562; [4]): 0.986 µM; CC50 (A-549; [3]): 9.48 µM; IC (TGI) (A-549; [4]): 0.27 µM; CC50 (HT-29; [3]): 9.48 µM; IC (TGI) (HT-29; [4]): 9.48 µM; CC50 (LoVo; [3]): 6.41 µM; IC (TGI) (LoVo; [4]): 0.884 µM; CC50 (LoVo-Dox; [3]): 9.48 µM; IC (TGI) (LoVo-Dox; [4]): 3.35 µM; GI50 (IGROV-ET): 0.0852 µM; CC50 (IGROV-ET): 9.48 µM; IC (TGI) (IGROV-ET): 0.557 µM; GI50 (PANC-1): 0.254 µM; CC50 (PANC-1; [3]): 9.48 µM; IC (TGI) (PANC-1; [4]): 3.27 µM; stimulation of DNA cleavage by topoisomerase I / inhibition of topoisomerase I (nicked DNA band) in DNA relaxation assay (human topoisomerase I): marked inhibition of topoisomerase I |
